Patent US9776981B2, “Hepatitis C virus inhibitors” (BRISTOL-MYERS SQUIBB COMPANY, priority 2009, dated 2017)
Where two headings read alike, the source gives them in different places.

Test system: HCV 1b genotype (HCV-neo replicon cells)
Test: HCV Replicon assay (HCV 1b genotype)
Format: cell-based
Conditions: Hepatitis C virus, HCV 1b genotype replicon
Method: An HCV Replicon assay was utilized in the present disclosure, and was prepared, conducted and validated as described in commonly owned PCT/US2006/022197 and in O'Boyle et al., Antimicrob. Agents Chemother., 49(4):1346-1353 (April 2005). Assay methods incorporating luciferase reporters have also been used as described (Apath.com).
HCV-neo replicon cells and replicon cells containing resistance substitutions in the NS5A region were used to test the currently described family of compounds. The compounds were determined to have differing degrees of reduced inhibitory activity on cells containing mutations vs. the corresponding inhibitory potency against wild-type cells. Thus, the compounds of the present disclosure can be effective in inhibiting the function of the HCV NS5A protein and are understood to be as effective in combinations as previously described in application PCT/US2006/022197 and commonly owned WO 04/014852. It should be understood that the compounds of the present disclosure can inhibit multiple genotypes of HCV. […] In one embodiment, compounds of the present disclosure are inhibitory versus 1a, 1b, 2a, 2b, 3a, 4a, and 5a genotypes.

[1] = class symbol, read-out: Range (EC50 against HCV 1b)

## CC(C)CC(=O)N[C@H](c1nc(-c2ccc(-c3ccc4cc(-c5c[nH]c([C@@H](NC(=O)CC(C)C)C(C)(C)C)n5)ccc4c3)cc2)c[nH]1)C(C)(C)C [Example 150, N-((1S)-1-(4-(4-(6-(2-((1S)-2,2-dimethyl-1-((3-methylbutanoyl)amino)propyl)-1H-imidazol-4-yl)-2-naphthyl)phenyl)-1H-imidazol-2-yl)-2,2-dimethylpropyl)-3-methylbutanamide]
[1]
  EC50: 1.01 to 1000 nM

## COC(=O)N[C@H](C(=O)N1C[C@@H](C)C[C@H]1c1ncc(-c2ccc(-c3ccc4cc(-c5[nH]c([C@@H]6C[C@H](C)CN6C(=O)[C@@H](NC(=O)OC)C6CCOCC6)nc5Cl)ccc4c3)cc2)[nH]1)C1CCOCC1 [Example 144, Methyl ((1S)-2-((2S,4S)-2-(4-(4-(6-(4-chloro-2-((2S,4S)-1-((2S)-2-((methoxycarbonyl)amino)-2-(tetrahydro-2H-pyran-4-yl)acetyl)-4-methyl-2-pyrrolidinyl)-1H-imidazol-5-yl)-2-naphthyl)phenyl)-1H-imidazol-2-yl)-4-methyl-1-pyrrolidinyl)-2-oxo-1-(tetrahydro-2H-pyran-4-yl)ethyl)carbamate]
[1]
  EC50: 0.0101 to 1 nM
read-out: EC50
  EC50: 0.0177 nM

## COC(=O)N[C@H](C(=O)N1C[C@@H](C)C[C@H]1c1ncc(-c2ccc(-c3ccc4cc(-c5[nH]c([C@@H]6C[C@H](C)CN6C(=O)[C@@H](NC(=O)OC)C(C)C)nc5Cl)ccc4c3)cc2)[nH]1)C(C)C [Example 143, Methyl ((1S)-1-(((2S,4S)-2-(4-(4-(6-(4-chloro-2-((2S,4S)-1-((2S)-2-((methoxycarbonyl)amino)-3-methylbutanoyl)-4-methyl-2-pyrrolidinyl)-1H-imidazol-5-yl)-2-naphthyl)phenyl)-1H-imidazol-2-yl)-4-methyl-1-pyrrolidinyl)carbonyl)-2-methylpropyl)carbamate]
read-out: EC50
  EC50: 0.00105 nM

## COC(=O)N[C@@H](C(=O)N[C@H](c1nc(-c2ccc3cc(-c4ccc(-c5cnc([C@@H](NC(=O)[C@H](NC(=O)OC)C(C)C)C(C)(C)C)[nH]5)cc4)ccc3c2)c[nH]1)C(C)(C)C)C(C)C [Example 148, Methyl ((1R)-1-(((1S)-1-(4-(4-(6-(2-((1S)-1-(((2R)-2-((methoxycarbonyl)amino)-3-methylbutanoyl)amino)-2,2-dimethylpropyl)-1H-imidazol-4-yl)-2-naphthyl)phenyl)-1H-imidazol-2-yl)-2,2-dimethylpropyl)carbamoyl)-2-methylpropyl)carbamate]
[1]
  EC50: 1.01 to 1000 nM
read-out: EC50
  EC50: 8.43 nM

## COC(=O)N[C@H](C(=O)N[C@H](c1nc(-c2ccc(-c3ccc4cc(-c5c[nH]c([C@@H](NC(=O)[C@@H](NC(=O)OC)C(C)C)C(C)(C)C)n5)ccc4c3)cc2)c[nH]1)C(C)(C)C)C(C)C [Example 149, methyl ((1S)-1-(((1S)-1-(4-(4-(6-(2-((1S)-1-(((2S)-2-((methoxycarbonyl)amino)-3-methylbutanoyl)amino)-2,2-dimethylpropyl)-1H-imidazol-4-yl)-2-naphthyl)phenyl)-1H-imidazol-2-yl)-2,2-dimethylpropyl)carbamoyl)-2-methylpropyl)carbamate]
[1]
  EC50: 0.0101 to 1 nM

## COC(=O)N[C@H](C(=O)N1[C@@H]2C[C@@H]2C[C@H]1c1ncc(-c2ccc3nc(-c4ccc5nc([C@@H]6C[C@H]7C[C@H]7N6C(=O)[C@@H](NC(=O)OC)C6CCOCC6)[nH]c5c4)cnc3c2)[nH]1)C1CCOCC1 [Example 53, Methyl ((1S)-2-((1R,3S,5R)-3-(4-(2-(2-((1R,3S,5R)-2-((2S)-2-((methoxycarbonyl)amino)-2-(tetrahydro-2H-pyran-4-yl)acetyl)-2-azabicyclo[3.1.0]hex-3-yl)-1H-benzimidazol-5-yl)-6-quinoxalinyl)-1H-imidazol-2-yl)-2-azabicyclo[3.1.0]hex-2-yl)-2-oxo-1-(tetrahydro-2H-pyran-4-yl)ethyl)carbamate]
[1]
  EC50: 1.01 to 1000 nM
read-out: EC50
  EC50: 1.81 nM

## COC(=O)N[C@H](C(=O)N1CCC[C@H]1c1nc2ccc(-c3ccc4cc(-c5ccc6nc([C@@H]7CCCN7C(=O)[C@@H](NC(=O)OC)C7CC7)[nH]c6c5)ccc4c3)cc2[nH]1)C1CC1 [Example 11, Dimethyl (2,6-naphthalenediylbis(1H-benzimidazole-5,2-diyl(2S)-2,1-pyrrolidinediyl((1S)-1-cyclopropyl-2-oxo-2,1-ethanediyl)))biscarbamate]
[1]
  EC50: 0.0101 to 1 nM
read-out: EC50
  EC50: 0.0182 nM

## COC(=O)N[C@H](C(=O)N1[C@@H]2C[C@@H]2C[C@H]1c1ncc(-c2ccc3nc(-c4ccc5nc([C@@H]6C[C@H]7C[C@H]7N6C(=O)[C@@H](NC(=O)OC)C(C)C)[nH]c5c4)cnc3c2)[nH]1)C(C)C [Example 52, Methyl ((1S)-1-(((1R,3S,5R)-3-(4-(2-(2-((1R,3S,5R)-2-((2S)-2-((methoxycarbonyl)amino)-3-methylbutanoyl)-2-azabicyclo[3.1.0]hex-3-yl)-1H-benzimidazol-5-yl)-6-quinoxalinyl)-1H-imidazol-2-yl)-2-azabicyclo[3.1.0]hex-2-yl)carbonyl)-2-methylpropyl)carbamate]
read-out: EC50
  EC50: 0.0059 nM

## COC(=O)N[C@H](C(=O)N1[C@@H]2C[C@@H]2C[C@H]1c1ncc(-c2cnc3cc(-c4ccc5nc([C@@H]6C[C@H]7C[C@H]7N6C(=O)[C@@H](NC(=O)OC)C6CCOCC6)[nH]c5c4)ccc3n2)[nH]1)C1CCOCC1 [Example 58, Methyl ((1S)-2-((1R,3S,5R)-3-(4-(6-(2-((1R,3S,5R)-2-((2S)-2-((methoxycarbonyl)amino)-2-(tetrahydro-2H-pyran-4-yl)acetyl)-2-azabicyclo[3.1.0]hex-3-yl)-1H-benzimidazol-5-yl)-2-quinoxalinyl)-1H-imidazol-2-yl)-2-azabicyclo[3.1.0]hex-2-yl)-2-oxo-1-(tetrahydro-2H-pyran-4-yl)ethyl)carbamate]
[1]
  EC50: 0.0101 to 1 nM
read-out: EC50
  EC50: 0.849 nM
